# Experiments:
# Assay type in all cases: functional
# [1] = system: Staphylococcus aureus; assay: Antimicrobial activity against Staphylococcus aureus ATCC 25923 after 24 hrs by broth microdilution method; settings: ATCC 25923, 24 h
# [2] = system: Pseudomonas aeruginosa; assay: Antimicrobial activity against Pseudomonas aeruginosa ATCC 27853 after 24 hrs by broth microdilution method; settings: ATCC 27853, 24 h
# [3] = system: Enterococcus faecalis; assay: Antimicrobial activity against Enterococcus faecalis ATCC 29212 after 24 hrs by broth microdilution method; settings: ATCC 29212, 24 h
# [4] = system: Listeria monocytogenes; assay: Antimicrobial activity against Listeria monocytogenes ATCC 19115 after 24 hrs by broth microdilution method; settings: ATCC 19115, 24 h
# [5] = system: Enterococcus faecalis; assay: Antimicrobial activity against Enterococcus faecalis ATCC 51299 after 24 hrs by broth microdilution method; settings: ATCC 51299, 24 h
# [6] = system: Escherichia coli; assay: Antimicrobial activity against Escherichia coli ATCC 25922 after 24 hrs by broth microdilution method; settings: ATCC 25922, 24 h
# [7] = system: Nakaseomyces glabratus; assay: Antimicrobial activity against Candida glabrata ATCC 90030 after 24 hrs by broth microdilution method; settings: ATCC 90030, 24 h
# [8] = system: Pichia kudriavzevii; assay: Antimicrobial activity against Candida krusei ATCC 6258 after 24 hrs by broth microdilution method; settings: ATCC 6258, 24 h
# [9] = system: Candida albicans; assay: Antimicrobial activity against Candida albicans ATCC 90028 after 24 hrs by broth microdilution method; settings: ATCC 90028, 24 h
# [10] = system: Escherichia coli; assay: Antimicrobial activity against Escherichia coli ATCC 35218 after 24 hrs by broth microdilution method; settings: ATCC 35218, 24 h
# [11] = system: Klebsiella pneumoniae; assay: Antimicrobial activity against Klebsiella pneumoniae ATCC 13883 after 24 hrs by broth microdilution method; settings: ATCC 13883, 24 h
SMILES,MIC [1] [µg/mL],MIC [2] [µg/mL],MIC [3] [µg/mL],MIC [4] [µg/mL],MIC [5] [µg/mL],MIC [6] [µg/mL],MIC [7] [µg/mL],MIC [8] [µg/mL],MIC [9] [µg/mL],MIC [10] [µg/mL],MIC [11] [µg/mL]
Cc1nc(SCC(=O)c2ccc(Cl)c(Cl)c2)n(Nc2ccccc2)c1C,800,400,200,400,800,800,200,200,400,800,800
COc1cccc(C(=O)CSc2nc(C)c(C)n2Nc2ccc(Cl)cc2)c1,800,800,200,1600,400,800,800,200,800,800,400
COc1ccc(C(=O)CSc2nc(C)c(C)n2Nc2ccc(Cl)cc2)cc1OC,800,400,100,100,800,400,400,400,400,800,800
Cc1ccc(Nn2c(SCC(=O)c3cccc(Cl)c3)nc(C)c2C)cc1,800,800,800,800,800,800,800,800,800,800,800
Cc1ccc(Nn2c(SCC(=O)c3ccc(F)cc3)nc(C)c2C)cc1,1600,1600,1600,1600,1600,1600,1600,1600,1600,1600,1600
Cc1nc(SCC(=O)c2ccc(F)cc2)n(Nc2ccc(Cl)cc2)c1C,800,1600,1600,3200,800,1600,1600,800,800,1600,800
Cc1nc(SCC(=O)c2cccc(Cl)c2)n(Nc2ccc(Cl)cc2)c1C,800,400,400,800,800,800,400,800,800,800,800

# The next lines start with the values.
MIC [1] [µg/mL],MIC [2] [µg/mL],MIC [3] [µg/mL],MIC [4] [µg/mL],MIC [5] [µg/mL],MIC [6] [µg/mL],MIC [7] [µg/mL],MIC [8] [µg/mL],MIC [9] [µg/mL],MIC [10] [µg/mL],MIC [11] [µg/mL],SMILES
400,400,400,400,400,800,400,200,400,400,400,Cc1nc(SCC(=O)c2cccc(F)c2)n(Nc2ccccc2)c1C
800,400,800,800,800,800,800,400,800,800,800,Cc1nc(SCC(=O)c2ccc(Cl)cc2)n(Nc2ccc(Cl)cc2)c1C
800,400,50,200,800,800,400,400,800,200,800,Cc1nc(SCC(=O)c2ccc(Cl)c(Cl)c2)n(Nc2ccc(Cl)cc2)c1C
800,800,800,800,800,800,800,400,800,800,800,COc1ccc(Nn2c(SCC(=O)c3cccc(Cl)c3)nc(C)c2C)cc1
800,400,400,400,400,800,400,200,400,400,400,Cc1nc(SCC(=O)c2ccc(F)cc2)n(Nc2ccccc2)c1C
400,800,200,1600,400,800,800,200,800,800,400,COc1ccc(C(=O)CSc2nc(C)c(C)n2Nc2ccc(Cl)cc2)cc1
200,400,400,400,800,800,800,50,200,200,400,COc1ccc(C(=O)CSc2nc(C)c(C)n2Nc2ccccc2)cc1OC
